Test results taken from ChEMBL document CHEMBL1201862, “PubChem BioAssay data set” (2004).
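These data come from cells grown in 96-well plates and exposed to compound for 48 hours at five concentrations. At the GI50, growth is halved.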 Active and inactive are the calls of the source. Rule as the data show it: active = GI50 up to about 1.1 µM and inactive = higher.

Legend:
Assay in all cases: NCI tumour cell line growth inhibition, 48 h
786-0 = system: 786-0
A549 = system: A549
BT-549 = system: BT-549
CAKI-1 = system: CAKI-1
CCRF-CEM = system: CCRF-CEM
COLO 205 = system: COLO 205
DU-145 = system: DU-145
EKVX = system: EKVX
HCT-116 = system: HCT-116
HCT-15 = system: HCT-15
HL-60 = system: HL-60
HOP-62 = system: HOP-62
HOP-92 = system: HOP-92
HT-29 = system: HT-29
Hs-578T = system: Hs-578T
IGROV-1 = system: IGROV-1
K562 = system: K562
KM12 = system: KM12
LOX IMVI = system: LOX IMVI
M14 = system: M14
MDA-MB-435 = system: MDA-MB-435
MDA-N = system: MDA-N
MOLT-4 = system: MOLT-4
Malme-3M = system: Malme-3M
NCI-H226 = system: NCI-H226
NCI-H23 = system: NCI-H23
NCI-H522 = system: NCI-H522
NCI/ADR-RES = system: NCI/ADR-RES
OVCAR-3 = system: OVCAR-3
OVCAR-4 = system: OVCAR-4
OVCAR-5 = system: OVCAR-5
OVCAR-8 = system: OVCAR-8
PC-3 = system: PC-3
RPMI-8226 = system: RPMI-8226
RXF 393 = system: RXF 393
SF-268 = system: SF-268
SF-295 = system: SF-295
SF-539 = system: SF-539
SK-MEL-28 = system: SK-MEL-28
SK-MEL-2 = system: SK-MEL-2
SK-MEL-5 = system: SK-MEL-5
SK-OV-3 = system: SK-OV-3
SN12C = system: SN12C
SNB-19 = system: SNB-19
SNB-75 = system: SNB-75
SR = system: SR
SW-620 = system: SW-620
T47D = system: T47D
UO-31 = system: UO-31
A498 = system: A498
ACHN = system: ACHN
HCC 2998 = system: HCC 2998
MCF7 = system: MCF7
MDA-MB-231 = system: MDA-MB-231
NCI-H460 = system: NCI-H460
TK-10 = system: TK-10
U-251 = system: U-251
UACC-257 = system: UACC-257
UACC-62 = system: UACC-62

COc1ccc(C2=NN(c3ccccc3)C(c3cc4cc(Br)ccc4nc3Cl)C2)cc1 (stereo not given)
GI50 (786-0): > 25 µM (inactive)
GI50 (A549): 15.1 µM (inactive)
GI50 (BT-549): > 25 µM (inactive)
GI50 (CAKI-1): 22.8 µM (inactive)
GI50 (CCRF-CEM): 24.2 µM (inactive)
GI50 (COLO 205): 9.71 µM (inactive)
GI50 (DU-145): > 25 µM (inactive)
GI50 (EKVX): 11.9 µM (inactive)
GI50 (HCT-116): 17.5 µM (inactive)
GI50 (HCT-15): 11.6 µM
GI50 (HL-60): > 25 µM (inactive)
GI50 (HOP-62): 18.8 µM (inactive)
GI50 (HOP-92): > 25 µM (inactive)
GI50 (HT-29): > 25 µM (inactive)
GI50 (Hs-578T): > 25 µM (inactive)
GI50 (IGROV-1): 15.2 µM (inactive)
GI50 (K562): 14.1 µM (inactive)
GI50 (KM12): 11.4 µM (inactive)
GI50 (LOX IMVI): > 25 µM (inactive)
GI50 (M14): > 25 µM (inactive)
GI50 (MDA-MB-435): 14.3 µM (inactive)
GI50 (MDA-N): 20.8 µM (inactive)
GI50 (MOLT-4): > 25 µM (inactive)
GI50 (Malme-3M): > 25 µM (inactive)
GI50 (NCI-H226): > 25 µM (inactive)
GI50 (NCI-H23): > 25 µM (inactive)
GI50 (NCI-H522): 16.7 µM (inactive)
GI50 (NCI/ADR-RES): > 25 µM (inactive)
GI50 (OVCAR-3): > 25 µM (inactive)
GI50 (OVCAR-4): 20.3 µM (inactive)
GI50 (OVCAR-5): > 25 µM (inactive)
GI50 (OVCAR-8): > 25 µM (inactive)
GI50 (PC-3): 23 µM (inactive)
GI50 (RPMI-8226): > 25 µM (inactive)
GI50 (RXF 393): > 25 µM (inactive)
GI50 (SF-268): > 25 µM (inactive)
GI50 (SF-295): 9.51 µM (inactive)
GI50 (SF-539): > 25 µM (inactive)
GI50 (SK-MEL-28): > 25 µM (inactive)
GI50 (SK-MEL-2): > 25 µM (inactive)
GI50 (SK-MEL-5): > 25 µM (inactive)
GI50 (SK-OV-3): > 25 µM (inactive)
GI50 (SN12C): > 25 µM (inactive)
GI50 (SNB-19): > 25 µM (inactive)
GI50 (SNB-75): > 25 µM (inactive)
GI50 (SR): 16.3 µM (inactive)
GI50 (SW-620): 24.9 µM (inactive)
GI50 (T47D): > 25 µM (inactive)
GI50 (UO-31): > 25 µM (inactive)

Cc1c2c(OCCCCN3CCN(c4ncccn4)CC3)nn(C)c(=O)c2c(C)n1-c1ccccc1
GI50 (786-0): 18.1 µM (inactive)
GI50 (A498): 16.9 µM (inactive)
GI50 (A549): 20.7 µM (inactive)
GI50 (ACHN): 17.4 µM (inactive)
GI50 (BT-549): 19.3 µM (inactive)
GI50 (CAKI-1): 16.9 µM (inactive)
GI50 (CCRF-CEM): 31.1 µM (inactive)
GI50 (COLO 205): 19 µM (inactive)
GI50 (DU-145): 17.1 µM (inactive)
GI50 (EKVX): 19.1 µM (inactive)
GI50 (HCC 2998): 20 µM (inactive)
GI50 (HCT-116): 16.9 µM (inactive)
GI50 (HCT-15): 17.8 µM
GI50 (HL-60): 21.1 µM (inactive)
GI50 (HOP-62): 25.7 µM (inactive)
GI50 (HOP-92): 16.4 µM (inactive)
GI50 (HT-29): 24.8 µM (inactive)
GI50 (Hs-578T): 26.2 µM (inactive)
GI50 (IGROV-1): 17.8 µM (inactive)
GI50 (K562): 30.8 µM (inactive)
GI50 (KM12): 18.4 µM (inactive)
GI50 (LOX IMVI): 20.4 µM (inactive)
GI50 (M14): 20.7 µM (inactive)
GI50 (MCF7): 16.4 µM (inactive)
GI50 (MDA-MB-231): 16 µM (inactive)
GI50 (MDA-MB-435): 18.7 µM (inactive)
GI50 (MOLT-4): 26.8 µM (inactive)
GI50 (Malme-3M): 20.2 µM (inactive)
GI50 (NCI-H226): 20.7 µM (inactive)
GI50 (NCI-H23): 19.1 µM (inactive)
GI50 (NCI-H460): 17.4 µM (inactive)
GI50 (NCI-H522): 18.4 µM (inactive)
GI50 (NCI/ADR-RES): 21.3 µM (inactive)
GI50 (OVCAR-3): 19.5 µM (inactive)
GI50 (OVCAR-4): 19.5 µM (inactive)
GI50 (OVCAR-5): 20.5 µM (inactive)
GI50 (OVCAR-8): 24.7 µM (inactive)
GI50 (PC-3): 20.4 µM (inactive)
GI50 (RPMI-8226): 20.2 µM (inactive)
GI50 (RXF 393): 18.6 µM (inactive)
GI50 (SF-268): 18.7 µM (inactive)
GI50 (SF-295): 16.4 µM (inactive)
GI50 (SF-539): 17.6 µM (inactive)
GI50 (SK-MEL-28): 18.4 µM (inactive)
GI50 (SK-MEL-2): 19.6 µM (inactive)
GI50 (SK-MEL-5): 13.8 µM (inactive)
GI50 (SK-OV-3): 18.7 µM (inactive)
GI50 (SN12C): 17.2 µM (inactive)
GI50 (SNB-19): 19 µM (inactive)
GI50 (SNB-75): 19.5 µM (inactive)
GI50 (SW-620): 25.6 µM (inactive)
GI50 (T47D): 17.9 µM (inactive)
GI50 (TK-10): 19 µM (inactive)
GI50 (U-251): 18.1 µM (inactive)
GI50 (UACC-257): 18.7 µM (inactive)
GI50 (UACC-62): 16.8 µM (inactive)
GI50 (UO-31): 15.8 µM (inactive)

Cc1cnc2c(c1C)C(=O)c1ccccc1C2=O
GI50 (786-0): 65.2 µM (inactive)
GI50 (A498): > 100 µM (inactive)
GI50 (A549): 40.1 µM (inactive)
GI50 (ACHN): 36.4 µM (inactive)
GI50 (BT-549): > 100 µM (inactive)
GI50 (CAKI-1): 30 µM (inactive)
GI50 (CCRF-CEM): 69.8 µM (inactive)
GI50 (COLO 205): 28.8 µM (inactive)
GI50 (DU-145): > 100 µM (inactive)
GI50 (EKVX): 37.8 µM (inactive)
GI50 (HCC 2998): 29.7 µM (inactive)
GI50 (HCT-116): 36.1 µM (inactive)
GI50 (HCT-15): 21.6 µM
GI50 (HOP-62): 2.47 µM (inactive)
GI50 (HOP-92): > 100 µM (inactive)
GI50 (HT-29): 37.2 µM (inactive)
GI50 (Hs-578T): 32.9 µM (inactive)
GI50 (IGROV-1): 32.6 µM (inactive)
GI50 (K562): 39.4 µM (inactive)
GI50 (KM12): 44.6 µM (inactive)
GI50 (M14): 69 µM (inactive)
GI50 (MCF7): 39.1 µM (inactive)
GI50 (MDA-MB-231): 26.5 µM (inactive)
GI50 (MDA-MB-435): 19.3 µM (inactive)
GI50 (MOLT-4): 28.3 µM (inactive)
GI50 (NCI-H226): 36.8 µM (inactive)
GI50 (NCI-H23): 44.7 µM (inactive)
GI50 (NCI-H460): 18.8 µM (inactive)
GI50 (NCI-H522): > 100 µM (inactive)
GI50 (NCI/ADR-RES): 46.3 µM (inactive)
GI50 (OVCAR-3): 3.48 µM (inactive)
GI50 (OVCAR-4): 18.8 µM (inactive)
GI50 (OVCAR-5): > 100 µM (inactive)
GI50 (OVCAR-8): 43.2 µM (inactive)
GI50 (PC-3): 26 µM (inactive)
GI50 (RPMI-8226): 24.6 µM (inactive)
GI50 (RXF 393): 58.1 µM (inactive)
GI50 (SF-268): 20.1 µM (inactive)
GI50 (SF-295): 50.2 µM (inactive)
GI50 (SF-539): 29.2 µM (inactive)
GI50 (SK-MEL-28): > 100 µM (inactive)
GI50 (SK-MEL-2): 63.5 µM (inactive)
GI50 (SK-MEL-5): 11.8 µM (inactive)
GI50 (SK-OV-3): 50.5 µM (inactive)
GI50 (SN12C): 28.6 µM (inactive)
GI50 (SNB-19): 41.9 µM (inactive)
GI50 (SNB-75): 32.9 µM (inactive)
GI50 (SR): 38 µM (inactive)
GI50 (SW-620): 27.5 µM (inactive)
GI50 (T47D): 70.5 µM (inactive)
GI50 (TK-10): > 100 µM (inactive)
GI50 (U-251): 61.5 µM (inactive)
GI50 (UACC-257): 49.4 µM (inactive)
GI50 (UO-31): 21.2 µM (inactive)
